Test results from patent publication US10765681B2 (Academia Sinica, priority 2016, dated 2020).
Where two headings read alike, the source gives them in different places.

Experiments:
H1975 lung cancer cells = assay: MTT assay, growth of H1975 lung cancer cells; format: cell-based; details: Homo sapiens
[1] = NCI-H1975, H1975, MTT, Table 2, read-out: IC50 against the growth of H1975 lung cancer cells
[2] = NCI-H1975, H1975 lung cancer cell line, MTT, Table 3, read-out: IC50 H1975
[3] = NCI-H1975, read-out: IC50 against the growth of H1975 lung cancer cells

| Compound | melting point | IC50 (H1975 lung cancer cells; [1]) | other results |
| --- | --- | --- | --- |
| CCOc1ccc(-c2nc(C#N)c3c(n2)n(-c2ccccc2OC)c(=O)n3C)cc1 [Compound 15a, 2-(4-Ethoxyphenyl)-9-(2-methoxyphenyl)-7-methyl-8-oxopurine-6-carbonitrile] | 235 to 237 °C |  |  |
| CCOc1ccc(-c2nc(C(N)=O)c3nc(S)n(-c4cc(C(F)(F)F)cc(C(F)(F)F)c4)c3n2)cc1 [Compound 10c, 9-(3,5-Bis(trifluoromethyl)phenyl)-2-(4-ethoxyphenyl)-8-mercaptopurine-6-carboxamide] | 299 to 301 °C |  |  |
| CCCCCCNC(=O)c1cccc(-n2c(=O)[nH]c3c(C(N)=O)nc(-c4ccc(OCC)cc4)nc32)c1 [Compound 8a, 2-(4-Ethoxyphenyl)-9-(3-hexylcarbamoyl)phenyl-8-oxopurine-6-carboxamide] |  | 0.49 ± 0.1 µM |  |
| CCOc1ccc(-c2nc(C(N)=O)c3[nH]c(=O)n(-c4cccc([N+](=O)[O-])c4)c3n2)cc1 [Compound 5l, 2-(4-Ethoxyphenyl)-9-(3-nitrophenyl)-8-oxopurine-6-carboxamide] | 322.8 to 324.3 °C |  |  |
| CCOc1ccc(-c2nc(C#N)c3[nH]c(=O)n(-c4ccccc4OC)c3n2)cc1 [Compound 12a, 2-(4-Ethoxyphenyl)-9-(2-methoxyphenyl)-8-oxopurine-6-carbonitrile] | 288 to 290 °C |  |  |
| C=CCn1oc(=O)nc1-c1nc(-c2ccc(OCC)cc2)nc2c1n(CC=C)c(=O)n2-c1ccccc1OC [Compound 25a, 2-Allyl-3-[7-allyl-2-(4-ethoxyphenyl)-9-(2-methoxyphenyl)-8-oxopurin-6-yl]-1,2,4-oxadiazol-5-one] | 88 to 90 °C |  |  |
| COc1ccc(-c2nc(C(=N)NO)c3[nH]c(=O)n(-c4ccccc4OC)c3n2)cc1O [Compound 14f, 2-(3-Hydroxy-4-methoxyphenyl)-9-(2-methoxyphenyl)-8-oxopurine-6-(N-hydroxy)carboximidamide] | 226 to 228 °C | 2.8 µM | IC50 (H1975 lung cancer cells; [2]): 2.8 µM |
| CCOc1ccc(-c2nc(C#N)c3[nH]c(=O)n(-c4cccc(C(=O)OC)c4)c3n2)cc1 [Compound 12c, 2-(4-Ethoxyphenyl)-9-(3-methoxycarbonylphenyl)-8-oxopurine-6-carbonitrile] | 297 to 299 °C |  |  |
| CCOc1ccc(-c2nc(C(N)=O)c3nc(SCC(=O)OC)n(-c4ccccc4)c3n2)cc1 [Compound 11f, 2-(4-Ethoxyphenyl)-8-(methoxycarbonylmethylthio)-9-phenylpurine-6-carb oxamide] |  | 2.1 µM |  |
| CCOc1ccc(-c2nc(C(N)=O)c3nc(SCC(=O)O)n(-c4ccccc4)c3n2)cc1 [Compound 11g, 8-(Carboxymethylthio)-2-(4-ethoxyphenyl)-9-phenylpurine-6-carboxamide] |  | 3.94 ± 0.06 µM |  |
| CCOc1ccc(-c2nc(C(N)=O)c3nc(SC)n(-c4ccccc4)c3n2)cc1 [Compound 11a, 2-(4-Ethoxyphenyl)-8-(methylthio)-9-phenylpurine-6-carboxamide] | 309.7 to 311 °C (dec.) |  |  |
| COc1ccc(-c2nc(C(N)=O)c3[nH]c(=O)n(-c4ccccc4OC)c3n2)cc1O [Compound 5n, 2-(3-Hydroxy-4-methoxyphenyl)-9-(2-methoxyphenyl)-8-oxopurine-6-carboxamide] | 319 to 321 °C |  |  |
| CCCCSc1nc2c(C(N)=O)nc(-c3ccc(OCC)cc3)nc2n1-c1ccccc1 [Compound 11b, 8-(Butylthio)-2-(4-ethoxyphenyl)-9-phenylpurine-6-carboxamide] |  | 6.37 ± 0.51 µM |  |
| CCOc1ccc(-c2nc(C(N)=O)c3[nH]c(=O)n(-c4cc(C(F)(F)F)cc(C(F)(F)F)c4)c3n2)cc1 [Compound 5m, 9-(3,5-Bis(trifluoromethyl)phenyl)-2-(4-ethoxyphenyl)-8-oxopurine-6-carboxamide] | 288 to 290 °C |  |  |
| COc1ccc(-c2nc(C(N)=O)c3nc(S)n(-c4ccccc4)c3n2)cc1O [Compound 10b, 2-(3-Hydroxy-4-methoxyphenyl)-8-mercapto-9-phenylpurine-6-carboxamide] | 368.9 to 369.7 °C (dec.) |  | IC50 (H1975 lung cancer cells; [3]): 0.24 ± 0.04 µM |
| NC(=O)c1nc(-c2ccc(O)cc2)nc2c1nc(S)n2-c1ccccc1 | 361 to 363 °C |  |  |
| CCOc1ccc(-c2nc(C(N)=O)c3[nH]c(=O)n(-c4cccc(C(=O)NCCCCCNC(=O)OC(C)(C)C)c4)c3n2)cc1 [Compound 8d, 2-(4-Ethoxyphenyl)-9-[3-(5-tert-butoxycarbonylamino)pentylcarbamoyl]phenyl-8-oxopurine-6-carboxamide] |  | 15.5 ± 1.96 µM |  |
| COC(=O)c1cccc(-n2c(=O)[nH]c3c(C(N)=O)nc(-c4ccc(OC)c(O)c4)nc32)c1 [Compound 5j, 2-(3-Hydroxy-4-methoxyphenyl)-9-(3-methoxycarbonylphenyl)-8-oxopurine-6-carboxamide] | 333.3 to 334.3 °C |  | IC50 (H1975 lung cancer cells; [3]): 0.35 ± 0.01 µM |
| CCOc1ccc(-c2nc(C(N)=O)c3nc(S)n(-c4ccccc4)c3n2)cc1 [Compound 10a, 2-(4-Ethoxyphenyl)-9-phenyl-8-mercaptopurine-6-carboxamide] | 321.2 to 321.8 °C (dec.) |  |  |

| Compound | melting point | IC50 (H1975 lung cancer cells; [1]) | other results |
| --- | --- | --- | --- |
| CCOc1ccc(-c2nc(C#N)c3nc(NC(=O)OC(C)(C)C)n(-c4ccccc4OC)c3n2)cc1 [Compound 34a, Tert-butyl (6-cyano-2-(4-ethoxyphenyl)-9-(2-methoxyphenyl)purin-8-yl)carbamate] | 260 to 262 °C (dec.) |  |  |
| CCOc1ccc(-c2nc(C(=N)NO)c3[nH]c(=O)n(-c4cccc(C(=O)OC)c4)c3n2)cc1 [Compound 14c, 2-(4-Ethoxyphenyl)-9-(3-methoxycarbonylphenyl)-8-oxopurine-6-(N-hydroxy)carboximidamide] | 257 to 259 °C |  |  |
| CCOC(=O)Oc1nc2c(C#N)nc(-c3ccc(OCC)cc3)nc2n1-c1ccccc1OC [Compound 17a, 6-Cyano-2-(4-ethoxyphenyl)-9-(2-methoxyphenyl)purin-8-yl ethyl carbonate] | 270 to 272 °C |  |  |
| CCOc1ccc(-c2nc(C#N)c3nc(N)n(-c4ccccc4OC)c3n2)cc1 [Compound 33a, 8-Amino-2-(4-ethoxyphenyl)-9-(2-methoxyphenyl)purine-6-carbonitrile] | 297 to 299 °C |  |  |
| CCOc1ccc(-c2nc(C#N)c3nc(SC(=O)OCc4ccccc4)n(-c4ccccc4)c3n2)cc1 [Compound 28a, 8-(Benzyloxycarbonylthio)-2-(4-ethoxyphenyl)-9-phenylpurine-6-carboxnitrile] | 179.2 to 180.4 °C |  |  |
| CCOc1ccc(-c2nc(C(N)=O)c3nc(SC(C)=O)n(-c4ccccc4)c3n2)cc1 [Compound 26a, 8-(Acetylthio)-2-(4-ethoxyphenyl)-9-phenylpurine-6-carboxamide] |  | 41.6 ± 11.6 µM | IC50 (H1975 lung cancer cells; [2]): 41.6 ± 11.6 µM |
| CCOc1ccc(-c2nc(C(N)=O)c3[nH]c(=O)n(-c4cccc(C(=O)NCCCCCNC(=O)CCCC[C@@H]5SC[C@@H]6NC(=O)N[C@@H]65)c4)c3n2)cc1 [Compound 8f] |  |  | IC50 (H1975 lung cancer cells; [3]): 26.3 ± 0.31 µM |
| COc1ccccc1-n1c(=O)[nH]c2c(C(N)=O)nc(-c3ccc(O)cc3)nc21 [Compound 5b, 2-(4-Hydroxyphenyl)-9-(2-methoxyphenyl)-8-oxopurine-6-carboxamide] | 370.2 to 371.8 °C |  |  |
| CCCCCCCCCCCCNC(=O)c1cccc(-n2c(=O)[nH]c3c(C(N)=O)nc(-c4ccc(OCC)cc4)nc32)c1 [Compound 8b, 2-(4-Ethoxyphenyl)-9-(3-dodecylcarbamoyl)phenyl-8-oxopurine-6-carboxamide] |  | 10.5 ± 0.25 µM |  |
| C=CCn1c(=O)n(-c2ccccc2OC)c2nc(-c3ccc(OCC)cc3)nc(C#N)c21 | 144 to 146 °C |  |  |
| CCOc1ccc(-c2nc(C(N)=O)c3[nH]c(=O)n(-c4cccc(C(=O)O)c4)c3n2)cc1 [Compound 6e, 2-(4-Ethoxyphenyl)-9-(3-carboxy)phenyl-8-oxopurine-6-carboxamide] |  | 7.91 ± 0.18 µM |  |
| CCOc1ccc(-c2nc(C(N)=O)c3[nH]c(=O)n(-c4cccc(C(=O)NCCCCCN=[N+]=[N-])c4)c3n2)cc1 [Compound 8c, 2-(4-Ethoxyphenyl)-9-[3-(5-azidopentylcarbamoyl)]phenyl-8-oxopurine-6-carboxamide] |  | 0.39 ± 0.01 µM |  |
| COc1ccc(-c2nc(C#N)c3[nH]c(=O)n(-c4ccccc4OC)c3n2)cc1O [Compound 12f, 2-(3-Hydroxy-4-methoxyphenyl)-9-(2-methoxyphenyl)-8-oxopurine-6-carbonitrile] | 294 to 296 °C | 25.8 µM | IC50 (H1975 lung cancer cells; [2]): 25.8 µM |
| CCOc1ccc(-c2nc(C#N)c3nc(S)n(-c4ccccc4)c3n2)cc1 [Compound 27a, 2-(4-Ethoxyphenyl)-8-mercapto-9-phenylpurine-6-carboxnitrile] | 278.5 to 280 °C |  |  |
| CCOc1ccc(-c2nc(C#N)c3c(n2)n(-c2ccccc2OC)c(=O)n3Cc2ccccc2)cc1 [Compound 15c, 7-Benzyl-2-(4-ethoxyphenyl)-9-(2-methoxyphenyl)-8-oxopurine-6-carbonitrile] | 164 to 166 °C |  |  |
| CCOc1ccc(-c2nc(C(N)=O)c3nc(SCC(=O)N4CCN(C(=O)OC(C)(C)C)CC4)n(-c4ccccc4)c3n2)cc1 [Compound 11d, 2-(4-Ethoxyphenyl)-9-phenyl-8-{[(4-tert-butoxycarbonyl)piperazinocarbonyl]methylthio}purine-6-carb oxamide] |  | 1.8 µM |  |
| CCOc1ccc(-c2nc(C#N)c3nc(N4CCOCC4)n(-c4ccccc4OC)c3n2)cc1 [Compound 33b, 2-(4-Ethoxyphenyl)-9-(2-methoxyphenyl)-8-morpholinopurine-6-carbonitrile] | 273 to 275 °C |  | IC50 (H1975 lung cancer cells; [2]): 74 µM |
| CCCCOc1ccc(-c2nc(C(N)=O)c3[nH]c(=O)n(-c4ccccc4OC)c3n2)cc1 [Compound 5c, 2-(4-Butoxyphenyl)-9-(2-methoxyphenyl)-8-oxopurine-6-carboxamide] | 268.7 to 270.2 °C | 4.66 ± 0.05 µM |  |
